Reference: ChEMBL document CHEMBL5523718, “Design, synthesis, molecular modeling, in vitro and in vivo biological evaluation of potent anthranilamide derivatives as dual P-glycoprotein and CYP3A4 inhibitors” (Eur J Med Chem, 2024)
≈ marks a conversion by molar mass, not a printed value.

Legend:
[1] = target: ATP-binding cassette sub-family C member 2 (Homo sapiens, UniProt Q92887); assay: Inhibition of MRP2 (unknown origin) ATPase activity
[2] = Metabolic stability in rat liver microsome assessed as half life; format: ADME; details: liver microsomes
[3] = C0 in CD-1 mouse at 5 mg/kg, iv measured upto 8 hrs by LC-MS/MS analysis; format: ADME, organism-based; details: in vivo
[4] = target: T1, P-gp (ABCB1) (Homo sapiens, UniProt P08183); assay: Inhibition of P-gp in human Caco-2 cells at 5 uM in presence of paclitaxel relative to control; format: cell-based; details: Caco-2, probe paclitaxel
[5] = target: T2, Cytochrome P450 3A4 (Homo sapiens, UniProt P08684); assay: Inhibition of CYP3A4 (unknown origin) using Midazolam as substrate; format: ADME
[6] = target: T1, P-gp (ABCB1); assay: Inhibition of P-gp in human Caco-2 cells at 10 uM in presence of paclitaxel relative to control; format: cell-based; details: Caco-2, probe paclitaxel
[7] = target: T1, P-gp (ABCB1); assay: Inhibition of P-gp in human Caco-2 cells at 0.1 uM in presence of paclitaxel relative to control; format: cell-based; details: Caco-2, probe paclitaxel
[8] = Tlast in CD-1 mouse at 5 mg/kg, iv measured upto 8 hrs by LC-MS/MS analysis; format: ADME, organism-based; details: in vivo
[9] = Metabolic stability in rat liver microsome assessed as intrinsic clearance; format: ADME; details: microsomes
[10] = Inhibition of MRP1 (unknown origin) ATPase activity; design: species or system Homo sapiens
[11] = target: T3, ATP-dependent translocase ABCB1 (Homo sapiens, UniProt P08183); assay: Inhibition of P-gp (unknown origin) ATPase activity
[12] = Apparent permeability of compound across apical to basolateral side in human Caco-2 cells; format: ADME, cell-based
[13] = target: Cytochrome P450 2D6 (Homo sapiens, UniProt P10635); assay: Inhibition of CYP2D6 (unknown origin) using Bufuralol as substrate; format: ADME
[14] = Inhibition of CYP3A4 in monkey liver using luciferin-IPA as substrate microsome preincubated with compound for 10 mins followed by NADPH addition and measured after 5 mins; format: ADME, microsomes, Macaca mulatta
[15] = target: Cytochrome P450 2C9 (Homo sapiens, UniProt P11712); assay: Inhibition of CYP2C9 (unknown origin) using Diclofenac as substrate; format: ADME
[16] = target: T2, Cytochrome P450 3A4; assay: Inhibition of CYP3A4 in human Hepatocyte using Luciferin-IPA as substrate; format: ADME, cell-based
[17] = target: T1, P-gp (ABCB1); assay: Inhibition of P-gp in human Caco-2 cells at 1 uM in presence of paclitaxel relative to control; format: cell-based; details: Caco-2, probe paclitaxel
[18] = target: T3, ATP-dependent translocase ABCB1; assay: Inhibition of P-gp in human MES-SA/Dx5 cells; format: cell-based
[19] = Metabolic stability in monkey liver microsome assessed as intrinsic clearance; format: ADME, Macaca mulatta; details: rhesus monkey, microsomes
[20] = Equilibrium solubility of compound in PBS at pH 7.4; format: physicochemical; details: PBS
[21] = target: T4, Cytochrome P450 1A2 (Homo sapiens, UniProt P05177); assay: Inhibition of CYP1A2 (unknown origin) using Phenacetin as substrate; format: ADME
T4 sequence (P05177 whole entry): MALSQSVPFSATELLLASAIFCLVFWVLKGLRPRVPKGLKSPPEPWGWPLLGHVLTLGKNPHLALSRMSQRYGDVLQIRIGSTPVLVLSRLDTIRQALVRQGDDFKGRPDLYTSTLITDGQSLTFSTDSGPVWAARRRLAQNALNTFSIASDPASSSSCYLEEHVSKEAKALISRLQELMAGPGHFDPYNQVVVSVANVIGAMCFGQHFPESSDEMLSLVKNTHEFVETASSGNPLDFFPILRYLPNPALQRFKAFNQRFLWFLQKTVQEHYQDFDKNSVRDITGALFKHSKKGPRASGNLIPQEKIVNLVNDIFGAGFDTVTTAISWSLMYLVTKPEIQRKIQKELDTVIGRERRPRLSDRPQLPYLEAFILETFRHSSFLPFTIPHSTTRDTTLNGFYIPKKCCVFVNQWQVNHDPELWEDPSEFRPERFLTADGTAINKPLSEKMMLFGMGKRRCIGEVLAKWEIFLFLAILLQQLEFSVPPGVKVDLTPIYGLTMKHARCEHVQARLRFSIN

[22] = target: T2, Cytochrome P450 3A4; assay: Inhibition of CYP3A4 in human liver using luciferin-IPA as substrate microsome preincubated with compound for 10 mins followed by NADPH addition and measured after 5 mins; format: ADME, microsomes
[23] = target: T1, P-gp (ABCB1); assay: Inhibition of P-gp in human Caco-2 cells at 0.01 uM in presence of paclitaxel relative to control; format: cell-based; details: Caco-2, probe paclitaxel
[24] = Apparent permeability of compound across basolateral to apical side in human Caco-2 cells; format: ADME, cell-based
[25] = Metabolic stability in monkey liver microsome assessed as half life; format: ADME, Macaca mulatta; details: rhesus monkey, liver microsomes
[26] = Inhibition of CYP3A4 in rat liver using luciferin-IPA as substrate microsome preincubated with compound for 10 mins followed by NADPH addition and measured after 5 mins; format: ADME, microsomes
[27] = target: Cytochrome P450 2C19 (Homo sapiens, UniProt P33261); assay: Inhibition of CYP2C19 (unknown origin) using S-mephenytoin as substrate; format: ADME
[28] = target: T5, Cytochrome P450 2C8 (Homo sapiens, UniProt P10632); assay: Inhibition of CYP2C8 (unknown origin) using Amodiaquine as substrate; format: ADME
T5 sequence (P10632 whole entry): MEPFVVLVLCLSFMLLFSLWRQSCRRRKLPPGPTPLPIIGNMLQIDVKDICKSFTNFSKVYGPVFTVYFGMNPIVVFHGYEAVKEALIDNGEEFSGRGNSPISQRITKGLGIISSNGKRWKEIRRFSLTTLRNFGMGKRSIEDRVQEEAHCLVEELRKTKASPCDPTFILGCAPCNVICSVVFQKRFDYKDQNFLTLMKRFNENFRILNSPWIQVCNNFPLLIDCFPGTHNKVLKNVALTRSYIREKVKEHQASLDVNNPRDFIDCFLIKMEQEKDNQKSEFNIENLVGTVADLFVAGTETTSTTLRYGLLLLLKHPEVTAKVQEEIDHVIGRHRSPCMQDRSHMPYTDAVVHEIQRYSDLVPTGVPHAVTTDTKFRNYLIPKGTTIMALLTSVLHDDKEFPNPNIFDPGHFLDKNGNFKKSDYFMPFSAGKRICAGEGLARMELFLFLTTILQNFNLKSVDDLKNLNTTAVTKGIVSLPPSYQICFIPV

T1 sequence (P08183 whole entry): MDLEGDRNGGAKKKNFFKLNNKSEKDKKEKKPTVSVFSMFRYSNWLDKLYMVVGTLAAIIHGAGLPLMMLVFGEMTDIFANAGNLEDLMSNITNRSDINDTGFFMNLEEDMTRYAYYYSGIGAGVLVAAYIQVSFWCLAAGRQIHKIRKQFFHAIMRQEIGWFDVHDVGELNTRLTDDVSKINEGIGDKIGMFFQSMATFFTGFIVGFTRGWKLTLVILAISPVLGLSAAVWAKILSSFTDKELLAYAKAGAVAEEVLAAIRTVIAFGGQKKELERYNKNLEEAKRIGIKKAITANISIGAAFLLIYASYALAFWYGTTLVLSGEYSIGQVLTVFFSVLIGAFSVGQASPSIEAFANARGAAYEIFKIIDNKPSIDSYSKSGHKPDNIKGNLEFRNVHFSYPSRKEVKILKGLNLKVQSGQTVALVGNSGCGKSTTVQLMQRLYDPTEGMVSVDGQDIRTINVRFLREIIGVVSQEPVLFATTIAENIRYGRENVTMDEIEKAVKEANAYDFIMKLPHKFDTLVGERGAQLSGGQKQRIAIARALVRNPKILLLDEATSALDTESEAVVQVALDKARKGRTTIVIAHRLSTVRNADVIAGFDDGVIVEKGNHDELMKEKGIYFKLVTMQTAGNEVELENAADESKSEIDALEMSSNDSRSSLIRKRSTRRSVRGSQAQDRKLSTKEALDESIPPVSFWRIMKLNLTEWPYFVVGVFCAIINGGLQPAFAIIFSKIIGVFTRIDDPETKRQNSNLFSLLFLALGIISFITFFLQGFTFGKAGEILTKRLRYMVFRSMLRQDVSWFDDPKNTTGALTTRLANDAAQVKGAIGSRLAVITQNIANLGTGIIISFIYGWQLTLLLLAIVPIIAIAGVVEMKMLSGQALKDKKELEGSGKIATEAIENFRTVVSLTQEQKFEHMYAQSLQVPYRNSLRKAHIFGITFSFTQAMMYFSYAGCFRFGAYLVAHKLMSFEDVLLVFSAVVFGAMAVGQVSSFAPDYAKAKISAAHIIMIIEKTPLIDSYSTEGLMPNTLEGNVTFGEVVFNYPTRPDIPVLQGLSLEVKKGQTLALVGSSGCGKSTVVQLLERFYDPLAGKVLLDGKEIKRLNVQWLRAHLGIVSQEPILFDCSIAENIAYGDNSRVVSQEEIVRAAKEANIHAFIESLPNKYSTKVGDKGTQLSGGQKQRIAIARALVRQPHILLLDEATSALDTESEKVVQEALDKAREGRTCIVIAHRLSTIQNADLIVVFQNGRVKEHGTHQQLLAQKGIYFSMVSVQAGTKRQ
T2 sequence (P08684 whole entry): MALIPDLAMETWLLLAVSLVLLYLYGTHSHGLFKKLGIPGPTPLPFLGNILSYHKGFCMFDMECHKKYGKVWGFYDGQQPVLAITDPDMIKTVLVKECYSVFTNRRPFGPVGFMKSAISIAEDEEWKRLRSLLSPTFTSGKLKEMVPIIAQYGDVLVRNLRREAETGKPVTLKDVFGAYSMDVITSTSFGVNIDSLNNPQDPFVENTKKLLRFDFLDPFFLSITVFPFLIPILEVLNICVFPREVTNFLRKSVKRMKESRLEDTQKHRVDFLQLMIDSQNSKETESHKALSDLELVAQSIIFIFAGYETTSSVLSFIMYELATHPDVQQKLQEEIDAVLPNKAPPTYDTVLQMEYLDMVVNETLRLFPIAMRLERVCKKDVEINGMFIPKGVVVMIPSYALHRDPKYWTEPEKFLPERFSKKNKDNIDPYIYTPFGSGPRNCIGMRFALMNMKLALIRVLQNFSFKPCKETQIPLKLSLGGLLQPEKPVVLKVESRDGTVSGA
T3 sequence (P08183 whole entry): as the sequence (P08183 whole entry) above
Cytochrome P450 2D6, sequence (P10635 whole entry): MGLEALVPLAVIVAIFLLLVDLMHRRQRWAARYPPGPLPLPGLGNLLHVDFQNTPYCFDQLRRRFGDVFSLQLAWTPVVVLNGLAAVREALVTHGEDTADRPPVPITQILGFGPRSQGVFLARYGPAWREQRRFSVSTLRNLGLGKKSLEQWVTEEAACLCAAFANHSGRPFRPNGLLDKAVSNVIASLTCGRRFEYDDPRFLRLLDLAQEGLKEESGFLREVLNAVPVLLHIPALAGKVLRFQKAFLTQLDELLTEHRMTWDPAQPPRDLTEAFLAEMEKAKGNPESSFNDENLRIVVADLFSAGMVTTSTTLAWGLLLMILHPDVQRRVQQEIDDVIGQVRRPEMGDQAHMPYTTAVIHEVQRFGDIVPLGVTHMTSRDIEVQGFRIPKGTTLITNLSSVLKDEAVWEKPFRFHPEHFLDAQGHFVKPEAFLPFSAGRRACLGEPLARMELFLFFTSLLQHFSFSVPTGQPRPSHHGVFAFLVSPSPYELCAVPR
ATP-binding cassette sub-family C member 2, sequence (Q92887 whole entry): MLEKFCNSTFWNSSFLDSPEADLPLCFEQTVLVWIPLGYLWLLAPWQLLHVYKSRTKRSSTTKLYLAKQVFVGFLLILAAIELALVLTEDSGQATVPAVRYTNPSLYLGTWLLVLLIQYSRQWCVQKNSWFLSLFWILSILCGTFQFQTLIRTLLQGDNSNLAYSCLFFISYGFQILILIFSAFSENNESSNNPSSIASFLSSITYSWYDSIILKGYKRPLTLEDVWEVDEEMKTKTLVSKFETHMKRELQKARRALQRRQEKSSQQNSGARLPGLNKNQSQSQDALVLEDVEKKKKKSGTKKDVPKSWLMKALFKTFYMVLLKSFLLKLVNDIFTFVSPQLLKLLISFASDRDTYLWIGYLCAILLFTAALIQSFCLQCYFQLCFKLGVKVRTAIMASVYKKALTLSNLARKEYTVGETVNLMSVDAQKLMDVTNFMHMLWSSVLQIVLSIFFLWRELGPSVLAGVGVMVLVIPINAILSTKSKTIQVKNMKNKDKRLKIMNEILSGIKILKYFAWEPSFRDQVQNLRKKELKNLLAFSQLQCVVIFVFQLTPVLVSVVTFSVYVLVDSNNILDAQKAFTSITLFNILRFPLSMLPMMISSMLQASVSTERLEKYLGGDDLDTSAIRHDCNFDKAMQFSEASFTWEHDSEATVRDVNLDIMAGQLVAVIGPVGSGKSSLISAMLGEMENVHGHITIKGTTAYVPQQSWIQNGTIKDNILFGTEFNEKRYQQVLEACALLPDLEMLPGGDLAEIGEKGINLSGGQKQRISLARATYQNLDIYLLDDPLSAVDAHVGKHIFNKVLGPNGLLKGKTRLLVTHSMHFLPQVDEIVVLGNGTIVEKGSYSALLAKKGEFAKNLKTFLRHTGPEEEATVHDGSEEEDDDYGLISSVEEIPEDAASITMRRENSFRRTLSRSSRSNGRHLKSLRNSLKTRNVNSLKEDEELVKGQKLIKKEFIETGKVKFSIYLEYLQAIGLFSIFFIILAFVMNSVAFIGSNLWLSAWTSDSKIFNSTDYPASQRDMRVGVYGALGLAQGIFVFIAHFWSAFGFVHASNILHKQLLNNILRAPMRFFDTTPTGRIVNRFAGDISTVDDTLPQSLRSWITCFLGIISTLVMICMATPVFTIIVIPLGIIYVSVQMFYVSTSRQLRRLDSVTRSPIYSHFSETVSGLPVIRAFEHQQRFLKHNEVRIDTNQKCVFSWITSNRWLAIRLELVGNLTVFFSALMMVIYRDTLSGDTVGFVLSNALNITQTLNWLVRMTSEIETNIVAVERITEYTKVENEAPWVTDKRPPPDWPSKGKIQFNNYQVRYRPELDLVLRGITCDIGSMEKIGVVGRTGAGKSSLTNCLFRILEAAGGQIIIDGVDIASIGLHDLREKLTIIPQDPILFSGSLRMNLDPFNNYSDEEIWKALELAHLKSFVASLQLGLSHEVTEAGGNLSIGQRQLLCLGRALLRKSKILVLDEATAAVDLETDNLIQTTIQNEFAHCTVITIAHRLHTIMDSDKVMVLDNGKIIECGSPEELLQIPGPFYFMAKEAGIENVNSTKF

- IC50 [1]: > 10000 nM
- half-life [2]: 15 min
- C0 at 8 h [3]: 6540 ng/mL
- inhibition at 5 µM [4]: 99%
- IC50 [5]: 140 nM
- inhibition at 10 µM [6]: 99%
- inhibition at 0.1 µM [7]: 89%
- Tlast [8]: 4.8 h
- CLH [9]: 95 µL/min/mg
- IC50 [10]: > 10000 nM
- IC50 [11]: 21 nM
- Papp A→B [12]: < 0.06 ×10⁻⁶ cm/s
- IC50 [13]: 69000 nM
- IC50 [14]: 140 nM
- IC50 [15]: 36000 nM
- IC50 [16]: 1470 nM
- inhibition at 1 µM [17]: 97%
- EC50 [18]: 28 nM
- CLH [19]: 280 µL/min/mg
- solubility thermodynamic [20]: 0.57 µM (≈ 0.39 µg/mL)
- IC50 [21]: > 100000 nM
- IC50 [22]: 223 nM
- inhibition at 0.01 µM [23]: 54%
- Papp B→A [24]: < 0.08 ×10⁻⁶ cm/s
- half-life [25]: 4.9 min
- IC50 [26]: 296 nM
- IC50 [27]: 39000 nM
- IC50 [28]: 11000 nM
SMILES: COc1cc(NC(=O)c2cc(=O)c3ccccc3o2)c(C(=O)Nc2ccc(C3CCN(Cc4cccc(-n5ccnc5)c4)CC3)cc2)cc1OC
